# Reference: publication PMC4435632, “Phase 1 study of ixazomib, an investigational proteasome inhibitor, in advanced non-hematologic malignancies” (Investigational New Drugs, 2015)
# What was measured:
# [1] = Ixazomib in tumor biopsies (LC/MS/MS); assay type: in vivo, human; details: TPEC, 1.76 mg/m^2; 10 evaluable patients
# Protocol: Tumor biopsies were analyzed for the presence of ixazomib using a quantified LC/MS/MS methodology validated in xenograft models. Expression of ATF-3 was measured in the TPEC using an IHC staining assay developed and validated using preclinical and human primary tumor samples. For this assay, formalin-fixed, paraffin-embedded tumor biopsy samples were obtained pre- and post-treatment (at 4–24 h post-dosing on day 1 or day 4 of cycle 1). Six 5 μm sections from each tumor sample were then cut (10 μm apart) and stained with antibody to ATF-3 (Santa Cruz Biotechnology, Inc., sc-188, lot:K1908) on a Discovery XT autostainer (Ventana Medical Systems, Inc.). After staining, whole slides were scanned and analyzed to calculate the percentage ATF-3-positive area for each section using the Genie™ (Aperio® ePathology Solutions) pattern recognition tool. The ATF-3-positive area was measured within the tumor region using the Positive Pixel Count algorithm, and the percentage ATF-3-positive area/total tumor area was then calculated for each section.
# Approximately 16 patients were planned to be enrolled to the TPEC to estimate ixazomib concentrations in tumors and target engagement as ATF-3 expression levels. […] This value was used to determine the minimum number of sections (n = 6) for pharmacodynamic analysis and the size of the fold change in ATF-3 that could be detected with 80 % power. […]
# [2] = system: patients with advanced non-hematologic malignancies; assay: Safety: adverse events graded by NCI-CTCAE v3.0, phase 1 study of IV ixazomib; assay type: in vivo
# From the text: Patients received ixazomib as an IV bolus on days 1, 4, 8, and 11 of a 21-day cycle, for up to 12 cycles, or until disease progression or unacceptable toxicity. Patients who were thought to potentially benefit from prolonged therapy could receive continued treatment beyond 12 cycles according to the treating physician’s consideration. Patients could receive prophylactic antiviral therapy; prophylactic antidiarrheals and antiemetics were not employed initially but could be considered upon development of diarrhea or nausea/vomiting.
# AEs were monitored throughout the study and were graded according to National Cancer Institute Common Terminology Criteria for Adverse Events (NCI-CTCAE) v3.0. Response assessments were undertaken by investigators using a consistent imaging modality in accordance with RECIST 1.0 [23] on days 18–21 of cycle 2 and subsequent cycles. For patients with prostate cancer, response and progressive disease were based on RECIST for measurable neoplastic disease or on measurement of serum PSA per modified PCWG2 criteria in the absence of measurable sites.
# The safety population included all patients who received ≥1 dose of ixazomib, and the DLT-evaluable population, which was used for determination of the MTD, comprised patients who received all cycle 1 doses of ixazomib or experienced a DLT in cycle 1. […] The response-evaluable population included all patients who received ≥1 dose of ixazomib, had measurable disease at baseline, and had ≥1 post-baseline disease assessment. Approximately 16 response-evaluable patients were planned to be evaluated in each MTD expansion cohort.
# All efficacy and safety data were summarized using descriptive statistics. Pharmacokinetic and pharmacodynamic parameters were calculated using noncompartmental methods (WinNonlin software v5.3).
compound,measurement,setting,value
CC(C)C[C@H](NC(=O)CNC(=O)c1cc(Cl)ccc1Cl)B(O)O [ixazomib],Ixazomib in post-dose tumor biopsies,[1],present in all 10 post-dose biopsies analyzed
same,Any on-study deaths,[2]; Dose-escalation cohort (n=23),3 (13) n (%)
same,Any on-study deaths,[2]; MTD expansion cohort H&N (n=22),2 (9) n (%)
same,Any on-study deaths,[2]; MTD expansion cohort NSCLC (n=20),0 n (%)
same,Any on-study deaths,[2]; MTD expansion cohort PC (n=11),0 n (%)
same,Any on-study deaths,[2]; MTD expansion cohort STS (n=20),1 (5) n (%)
same,Any on-study deaths,[2]; MTD expansion cohort TPEC (n=20),1 (5) n (%)
same,Any on-study deaths,[2]; Total (N=116),7 (6) n (%)
same,Drug-related AE: alopecia,"[2]; human, in vivo",< 1%
same,Drug-related AE: circumoral edema,"[2]; human, in vivo",< 1%
same,Drug-related AE: dermatitis acneiform,"[2]; human, in vivo",2%
same,Drug-related AE: dry skin,"[2]; human, in vivo",2%
same,Drug-related AE: erythema nodosum,"[2]; human, in vivo",< 1%
same,Drug-related AE: exfoliative rash,"[2]; human, in vivo",< 1%
same,Drug-related AE: night sweats,"[2]; human, in vivo",< 1%
same,Drug-related AE: petechiae,"[2]; human, in vivo",< 1%
same,Drug-related AE: pruritus,"[2]; human, in vivo",4%
same,Drug-related AE: rash,"[2]; human, in vivo",6%
same,Drug-related AE: rash erythematous,"[2]; human, in vivo",9%
same,Drug-related AE: rash macular,"[2]; human, in vivo",13%
same,Drug-related AE: rash maculo-papular,"[2]; human, in vivo",17%
same,Drug-related AE: rash papular,"[2]; human, in vivo",10%
same,Drug-related AE: rash pruritic,"[2]; human, in vivo",13%
same,Drug-related AE: skin exfoliation,"[2]; human, in vivo",< 1%
same,Drug-related AE: skin hyperpigmentation,"[2]; human, in vivo",< 1%
same,Drug-related AE: swelling face,"[2]; human, in vivo",< 1%
same,Drug-related AE: urticaria,"[2]; human, in vivo",< 1%
same,Drug-related PN NEC,"[2]; human, in vivo",15%
same,"Drug-related PN NEC, grade 1","[2]; human, in vivo",6 n
same,"Drug-related PN NEC, grade 2","[2]; human, in vivo",8 n
same,Drug-related grade ≥3 AE: erythema nodosum,"[2]; human, in vivo",< 1%
same,Drug-related grade ≥3 AE: rash,"[2]; human, in vivo",< 1%
same,Drug-related grade ≥3 AE: rash erythematous,"[2]; human, in vivo",2%
same,Drug-related grade ≥3 AE: rash macular,"[2]; human, in vivo",3%
same,Drug-related grade ≥3 AE: rash maculo-papular,"[2]; human, in vivo",7%
same,Drug-related grade ≥3 AE: rash papular,"[2]; human, in vivo",< 1%
same,Drug-related grade ≥3 AE: rash pruritic,"[2]; human, in vivo",3%
same,Drug-related grade ≥3 fatigue,"[2]; human, in vivo",9%
same,Drug-related grade ≥3 thrombocytopenia,"[2]; human, in vivo",23%
same,Drug-related serious AE: dehydration,"[2]; human, in vivo",3%
same,Drug-related serious AE: fatigue,"[2]; human, in vivo",3%
same,Drug-related serious AE: nausea,"[2]; human, in vivo",3%
same,Drug-related serious AE: thrombocytopenia,"[2]; human, in vivo",6%
same,Drug-related serious AE: vomiting,"[2]; human, in vivo",3%
same,Drug-related serious AEs,"[2]; human, in vivo",28%
same,Drug-related thrombocytopenia,"[2]; human, in vivo",45%
same,"Duration of rash, median","[2]; human, in vivo",15 days
same,"Duration of rash, range","[2]; human, in vivo",4 to 90 days
same,Grade 3 PN NEC,"[2]; human, in vivo",3%
same,Patients who discontinued ixazomib due to treatment-emergent AEs,"[2]; human, in vivo",15%
same,Patients who required platelet transfusions,"[2]; human, in vivo",4%
same,Patients with ≥1 drug-related AE,"[2]; human, in vivo",90%
same,Patients with ≥1 drug-related grade ≥3 AE,"[2]; human, in vivo",57%
same,Patients with ≥1 treatment-emergent AE,"[2]; human, in vivo",99%
same,Patients with ≥1 treatment-emergent grade ≥3 AE,"[2]; human, in vivo",72%
same,Drug-related grade ≥3 skin and subcutaneous (SC) tissue disorders,"[2]; human, in vivo, sc",16%
same,Treatment-related skin and subcutaneous (SC) tissue disorders,"[2]; human, in vivo, sc",53%
same,On-study deaths,[2]; none considered treatment-related,seven
